Source: publication PMC7316778 (Nature Communications, 2020)
Values joined by “and” are separate entries in the source; they are usually repeats but may differ in a detail not shown here. Equal entries are not always repeated. Where two headings read alike, the source gives them in different places.

Assays:
PRKCN (PKD3) = PRKCN (PKD3) (Homo sapiens, UniProt O94806); assay: SelectScreen kinase assay
Description: (§1) Selectivity profiling assays were performed by the Invitrogen SelectScreen™ Services. […] The concentration of ATP was selected to be equal to the KM, unless indicated otherwise.

RIPK3 = RIPK3 (Homo sapiens, UniProt Q9Y572); assay: SelectScreen kinase assay
Description: as §1

FES^S700C = FES^S700C (Homo sapiens, UniProt P07332, S700C); assay: FES Y713 autophosphorylation immunoblot, transfected HEK293T cells; assay type: cell-based; parameters: expressed in transfected cells; host or cells: HEK293T (transient, PEI); conditions: WEL028 100 nM
Description: Samples were resolved by SDS-PAGE as described above, but transferred to 0.2 μm polyvinylidene difluoride membranes by Trans-Blot Turbo™ Transfer system (Bio-Rad) directly after fluorescence scanning. Membranes were washed with TBS (50 mM Tris pH 7.5, 150 mM NaCl) and blocked with 5% milk in TBS-T (50 mM Tris pH 7.5, 150 mM NaCl, 0.05% Tween-20) for 1 h at rt.
Membranes were then incubated with primary antibody in 5% milk in TBS-T (FLAG, V5, β-actin; o/n at 4 °C) or washed three times with TBS-T, followed by incubation with primary antibody in 5% BSA in TBS-T (other antibodies, o/n at 4 °C). Membranes were washed three times with TBS-T, incubated with matching secondary antibody in 5% milk in TBS-T (1:5000, 1 h at rt) and then washed three times with TBS-T and once with TBS. Luminol development solution (10 mL of 1.4 mM luminol in 100 mM Tris pH 8.8 + 100 µL of 6.7 mM p-coumaric acid in DMSO + 3 µL of 30% (v/v) H2O2) or Clarity Max™ ECL Substrate (Bio-Rad) was added and chemiluminescence was detected on ChemiDoc™ MP System.

ALK [1] = assay: SelectScreen kinase assay; conditions: IC50 on that kinase divided by IC50 on FES^S700C
Description: as §1

ALK [2] = target: ALK (Homo sapiens, UniProt Q9UM73); assay: SelectScreen kinase assay
Description: as §1

MAP3K9 (MLK1) = MAP3K9 (MLK1) (Homo sapiens, UniProt P80192); assay: SelectScreen kinase assay
Description: as §1

ADRBK2 (GRK3) = target: T1, ADRBK2 (GRK3) (Homo sapiens, UniProt P35626); assay: SelectScreen kinase assay
T1 sequence (P35626 1-688): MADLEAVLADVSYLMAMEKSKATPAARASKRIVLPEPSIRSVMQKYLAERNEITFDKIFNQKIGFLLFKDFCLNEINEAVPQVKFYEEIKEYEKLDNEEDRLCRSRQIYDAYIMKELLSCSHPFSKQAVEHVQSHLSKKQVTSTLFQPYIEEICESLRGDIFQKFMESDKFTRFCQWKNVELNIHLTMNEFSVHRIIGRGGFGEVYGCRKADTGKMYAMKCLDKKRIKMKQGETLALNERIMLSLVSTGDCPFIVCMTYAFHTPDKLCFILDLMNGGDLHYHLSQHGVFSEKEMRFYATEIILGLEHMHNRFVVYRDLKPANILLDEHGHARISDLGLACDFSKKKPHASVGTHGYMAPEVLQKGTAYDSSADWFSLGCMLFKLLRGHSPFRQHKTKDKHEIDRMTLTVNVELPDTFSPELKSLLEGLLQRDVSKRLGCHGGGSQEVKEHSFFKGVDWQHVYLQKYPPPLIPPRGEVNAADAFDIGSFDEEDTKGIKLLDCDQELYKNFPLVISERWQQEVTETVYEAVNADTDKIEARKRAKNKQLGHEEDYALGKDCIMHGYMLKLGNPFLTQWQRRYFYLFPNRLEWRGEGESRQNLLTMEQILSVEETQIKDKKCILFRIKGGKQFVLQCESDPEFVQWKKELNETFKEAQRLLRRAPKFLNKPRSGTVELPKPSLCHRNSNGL
Description: as §1

KDR (VEGFR2) [3] = target: KDR (VEGFR2) (Homo sapiens, UniProt P35968); assay: SelectScreen kinase assay
Description: as §1

KDR (VEGFR2) [4] = assay: SelectScreen kinase assay; conditions: IC50 on that kinase divided by IC50 on FES^S700C
Description: as §1

MAP2K4 (MEK4) = target: T2, MAP2K4 (MEK4) (Homo sapiens, UniProt P45985); assay: SelectScreen kinase assay
T2 sequence (P45985 1-399): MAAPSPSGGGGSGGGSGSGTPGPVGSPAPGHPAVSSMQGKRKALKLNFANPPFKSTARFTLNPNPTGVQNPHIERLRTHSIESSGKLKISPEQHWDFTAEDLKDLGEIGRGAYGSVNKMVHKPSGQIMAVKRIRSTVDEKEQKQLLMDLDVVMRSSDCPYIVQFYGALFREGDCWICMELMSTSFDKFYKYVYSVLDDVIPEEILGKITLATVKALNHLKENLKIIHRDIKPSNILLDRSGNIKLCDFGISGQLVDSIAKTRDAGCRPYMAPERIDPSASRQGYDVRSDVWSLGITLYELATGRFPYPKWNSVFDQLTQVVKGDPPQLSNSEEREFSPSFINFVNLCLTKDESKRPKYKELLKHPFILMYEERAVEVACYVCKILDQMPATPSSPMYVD
Description: as §1

HCK = HCK (Homo sapiens, UniProt P08631); assay: SelectScreen kinase assay
Description: as §1

FER = FER (Homo sapiens, UniProt P16591); assay: SelectScreen kinase assay
Description: as §1

PRKCH (PKC eta) = PRKCH (PKC eta) (Homo sapiens, UniProt P24723); assay: SelectScreen kinase assay; conditions: 1 h, 1 μM WEL028, 1 h preincubation
Description: as §1

[5] = 1 h, 1 μM WEL028, 1 h preincubation

ALK (Homo sapiens, UniProt Q9UM73), sequence (Q9UM73 19-1620, species assumed): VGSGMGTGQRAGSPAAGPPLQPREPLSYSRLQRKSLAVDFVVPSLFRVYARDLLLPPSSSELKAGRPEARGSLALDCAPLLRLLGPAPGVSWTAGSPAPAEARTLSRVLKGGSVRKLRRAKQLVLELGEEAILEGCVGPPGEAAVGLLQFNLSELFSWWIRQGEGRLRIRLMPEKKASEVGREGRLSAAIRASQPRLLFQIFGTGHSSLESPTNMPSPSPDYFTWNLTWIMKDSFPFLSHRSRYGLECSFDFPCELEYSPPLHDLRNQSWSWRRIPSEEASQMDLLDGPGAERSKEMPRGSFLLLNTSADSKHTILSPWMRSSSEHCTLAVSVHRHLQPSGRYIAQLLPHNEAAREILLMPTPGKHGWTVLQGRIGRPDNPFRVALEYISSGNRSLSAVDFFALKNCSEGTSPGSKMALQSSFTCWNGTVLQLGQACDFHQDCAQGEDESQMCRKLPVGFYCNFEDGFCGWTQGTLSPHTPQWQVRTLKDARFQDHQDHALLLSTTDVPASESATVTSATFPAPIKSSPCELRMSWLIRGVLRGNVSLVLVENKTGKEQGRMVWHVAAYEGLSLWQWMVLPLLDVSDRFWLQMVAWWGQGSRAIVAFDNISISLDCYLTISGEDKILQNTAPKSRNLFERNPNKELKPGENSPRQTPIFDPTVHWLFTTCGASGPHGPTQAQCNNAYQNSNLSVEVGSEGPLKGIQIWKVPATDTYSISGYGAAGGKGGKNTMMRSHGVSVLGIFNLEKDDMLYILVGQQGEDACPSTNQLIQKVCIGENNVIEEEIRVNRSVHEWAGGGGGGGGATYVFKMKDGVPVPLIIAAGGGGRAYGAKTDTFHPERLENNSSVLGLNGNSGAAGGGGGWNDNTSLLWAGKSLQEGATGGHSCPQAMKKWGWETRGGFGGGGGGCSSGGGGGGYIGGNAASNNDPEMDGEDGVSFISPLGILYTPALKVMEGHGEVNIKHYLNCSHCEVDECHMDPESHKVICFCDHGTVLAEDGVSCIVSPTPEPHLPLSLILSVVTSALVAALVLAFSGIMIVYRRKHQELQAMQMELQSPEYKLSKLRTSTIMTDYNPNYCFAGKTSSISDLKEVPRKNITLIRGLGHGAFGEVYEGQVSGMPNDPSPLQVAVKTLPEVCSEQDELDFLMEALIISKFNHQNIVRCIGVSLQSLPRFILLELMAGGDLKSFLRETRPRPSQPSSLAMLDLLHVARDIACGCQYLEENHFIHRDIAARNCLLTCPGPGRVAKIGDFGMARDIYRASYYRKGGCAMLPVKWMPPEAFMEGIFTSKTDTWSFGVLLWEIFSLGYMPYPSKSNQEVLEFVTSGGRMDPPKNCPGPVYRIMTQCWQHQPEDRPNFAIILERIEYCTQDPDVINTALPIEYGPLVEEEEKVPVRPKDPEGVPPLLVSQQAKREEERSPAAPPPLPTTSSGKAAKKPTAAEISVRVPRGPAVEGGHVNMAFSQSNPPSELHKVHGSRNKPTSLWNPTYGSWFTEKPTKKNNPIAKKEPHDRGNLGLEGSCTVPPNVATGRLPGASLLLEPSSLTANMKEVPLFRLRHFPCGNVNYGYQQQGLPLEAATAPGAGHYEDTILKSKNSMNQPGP
FER, sequence (P16591 whole entry): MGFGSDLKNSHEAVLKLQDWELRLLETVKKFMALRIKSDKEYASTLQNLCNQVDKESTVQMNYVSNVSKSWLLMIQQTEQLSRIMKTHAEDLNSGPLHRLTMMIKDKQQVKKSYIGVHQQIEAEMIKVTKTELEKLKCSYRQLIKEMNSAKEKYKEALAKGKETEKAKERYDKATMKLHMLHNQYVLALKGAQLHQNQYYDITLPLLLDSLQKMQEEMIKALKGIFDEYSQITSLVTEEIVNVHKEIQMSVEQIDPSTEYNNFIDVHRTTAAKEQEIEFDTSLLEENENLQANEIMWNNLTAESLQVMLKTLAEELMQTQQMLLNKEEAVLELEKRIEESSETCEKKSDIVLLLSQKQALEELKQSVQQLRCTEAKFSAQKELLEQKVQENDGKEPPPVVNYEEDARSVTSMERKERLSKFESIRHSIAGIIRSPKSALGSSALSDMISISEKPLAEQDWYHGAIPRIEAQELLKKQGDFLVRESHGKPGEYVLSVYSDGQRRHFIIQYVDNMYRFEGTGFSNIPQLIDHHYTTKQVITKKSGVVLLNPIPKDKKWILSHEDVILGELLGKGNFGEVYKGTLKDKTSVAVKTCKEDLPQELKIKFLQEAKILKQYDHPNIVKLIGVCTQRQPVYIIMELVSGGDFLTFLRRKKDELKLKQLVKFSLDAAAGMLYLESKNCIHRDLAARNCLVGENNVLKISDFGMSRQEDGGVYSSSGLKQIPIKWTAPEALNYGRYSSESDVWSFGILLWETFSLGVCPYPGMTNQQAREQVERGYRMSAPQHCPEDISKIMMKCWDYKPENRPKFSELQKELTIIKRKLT
KDR (VEGFR2) (Homo sapiens, UniProt P35968), sequence (P35968 20-1356, species assumed): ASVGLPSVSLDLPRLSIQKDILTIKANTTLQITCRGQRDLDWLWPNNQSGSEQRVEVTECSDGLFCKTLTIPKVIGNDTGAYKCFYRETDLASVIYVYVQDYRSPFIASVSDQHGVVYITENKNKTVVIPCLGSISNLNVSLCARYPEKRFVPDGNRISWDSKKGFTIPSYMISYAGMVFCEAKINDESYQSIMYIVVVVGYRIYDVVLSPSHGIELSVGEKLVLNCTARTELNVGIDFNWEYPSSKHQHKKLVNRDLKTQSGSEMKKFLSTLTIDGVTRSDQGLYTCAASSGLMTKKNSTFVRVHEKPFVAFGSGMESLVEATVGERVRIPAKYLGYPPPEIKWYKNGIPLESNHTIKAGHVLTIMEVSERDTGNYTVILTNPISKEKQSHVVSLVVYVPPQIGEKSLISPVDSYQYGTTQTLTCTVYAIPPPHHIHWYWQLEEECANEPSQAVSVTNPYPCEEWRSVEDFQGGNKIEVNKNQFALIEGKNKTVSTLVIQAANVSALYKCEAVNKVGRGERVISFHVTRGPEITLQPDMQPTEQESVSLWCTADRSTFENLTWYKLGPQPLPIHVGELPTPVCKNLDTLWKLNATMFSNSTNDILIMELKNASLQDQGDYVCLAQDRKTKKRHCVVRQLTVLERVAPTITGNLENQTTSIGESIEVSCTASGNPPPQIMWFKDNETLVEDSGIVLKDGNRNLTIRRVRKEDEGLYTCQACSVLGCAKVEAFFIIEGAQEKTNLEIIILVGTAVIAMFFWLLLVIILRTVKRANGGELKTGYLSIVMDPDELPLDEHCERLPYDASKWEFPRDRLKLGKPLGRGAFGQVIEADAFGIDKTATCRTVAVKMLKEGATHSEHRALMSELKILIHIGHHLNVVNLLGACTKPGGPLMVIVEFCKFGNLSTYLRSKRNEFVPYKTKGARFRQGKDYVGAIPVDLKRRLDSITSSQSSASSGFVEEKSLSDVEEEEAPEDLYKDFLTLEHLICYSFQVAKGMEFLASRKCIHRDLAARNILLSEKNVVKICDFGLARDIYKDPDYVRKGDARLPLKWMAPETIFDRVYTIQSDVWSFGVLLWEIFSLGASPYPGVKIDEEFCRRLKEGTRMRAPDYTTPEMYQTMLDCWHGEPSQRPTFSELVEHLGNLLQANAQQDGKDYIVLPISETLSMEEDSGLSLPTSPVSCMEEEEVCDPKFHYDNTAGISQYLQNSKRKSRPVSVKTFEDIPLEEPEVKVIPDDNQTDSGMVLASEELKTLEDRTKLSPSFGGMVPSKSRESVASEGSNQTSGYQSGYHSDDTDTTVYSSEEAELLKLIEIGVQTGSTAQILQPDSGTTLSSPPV
HCK, sequence (P08631 whole entry): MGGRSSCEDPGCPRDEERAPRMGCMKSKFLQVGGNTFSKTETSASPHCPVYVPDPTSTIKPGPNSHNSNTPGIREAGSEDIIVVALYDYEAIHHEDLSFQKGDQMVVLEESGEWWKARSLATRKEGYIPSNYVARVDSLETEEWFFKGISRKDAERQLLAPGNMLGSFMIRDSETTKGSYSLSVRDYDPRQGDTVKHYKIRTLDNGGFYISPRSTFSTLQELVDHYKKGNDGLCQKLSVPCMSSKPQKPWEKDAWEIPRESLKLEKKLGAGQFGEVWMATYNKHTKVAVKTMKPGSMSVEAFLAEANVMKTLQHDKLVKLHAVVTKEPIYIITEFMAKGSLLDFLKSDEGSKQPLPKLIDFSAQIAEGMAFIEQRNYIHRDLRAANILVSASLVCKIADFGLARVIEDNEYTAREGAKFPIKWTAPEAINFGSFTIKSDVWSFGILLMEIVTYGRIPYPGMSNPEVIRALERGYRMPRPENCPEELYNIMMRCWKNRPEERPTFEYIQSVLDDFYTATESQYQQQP
FES^S700C, sequence (P07332 whole entry S700C): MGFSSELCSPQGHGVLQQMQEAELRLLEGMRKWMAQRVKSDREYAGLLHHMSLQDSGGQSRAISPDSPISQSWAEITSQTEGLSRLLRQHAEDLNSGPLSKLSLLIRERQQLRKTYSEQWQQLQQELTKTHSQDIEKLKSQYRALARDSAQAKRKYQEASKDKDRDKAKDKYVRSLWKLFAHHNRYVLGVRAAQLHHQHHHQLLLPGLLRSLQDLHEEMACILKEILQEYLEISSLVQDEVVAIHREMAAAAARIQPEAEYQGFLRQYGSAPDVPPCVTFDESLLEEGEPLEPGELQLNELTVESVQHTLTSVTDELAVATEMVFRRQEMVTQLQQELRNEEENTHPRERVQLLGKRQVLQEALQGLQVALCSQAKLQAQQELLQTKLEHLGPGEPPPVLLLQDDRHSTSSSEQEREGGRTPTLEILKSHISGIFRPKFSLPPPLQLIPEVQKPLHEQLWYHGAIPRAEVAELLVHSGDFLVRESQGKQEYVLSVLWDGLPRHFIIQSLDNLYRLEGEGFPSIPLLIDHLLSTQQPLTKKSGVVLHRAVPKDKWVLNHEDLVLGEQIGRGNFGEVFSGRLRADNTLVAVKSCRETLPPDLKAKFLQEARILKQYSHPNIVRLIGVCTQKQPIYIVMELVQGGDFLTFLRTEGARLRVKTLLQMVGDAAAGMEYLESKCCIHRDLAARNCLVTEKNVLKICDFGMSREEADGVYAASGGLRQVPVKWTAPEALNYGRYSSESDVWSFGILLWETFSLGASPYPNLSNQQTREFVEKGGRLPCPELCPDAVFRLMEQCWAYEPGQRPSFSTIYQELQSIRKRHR

With C#CCOc1ccc(Nc2ncc(Cl)c(Nc3ccccc3NC(=O)C=C)n2)c(OC)c1 [Compound 6] the inhibition at 1 µM (PRKCN (PKD3); [5]) was 31%, the inhibition at 1 µM (PRKCN (PKD3); read-out: Inhibition at 1 µM (%), PRKCN (PKD3), 1 µM, ZLYTE, ATP Km app) was 32% and the inhibition at 1 µM (RIPK3; [5]) was 1%. For the same molecule, the inhibition at 1 µM (RIPK3; read-out: Inhibition at 1 µM (%), 1 µM, LanthaScreen Binding) was 2%, the “Relative FES labeling (%)” value (FES^S700C; Fig. 4i, anti-phospho-FES Y713 band intensity, replicates, normalized to vehicle) was 6.91% and 5.589% and 0.4481% and the “Autophosphorylation of Tyr713” value (FES^S700C) was “fully abolished autophosphorylation”. The Apparent fold selectivity (ALK [1]) was 28 fold, the IC50 (ALK [2]) was 126 nM and the inhibition at 1 µM (ALK [2]; [5]) was 89%. The inhibition at 1 µM (ALK [2]; read-out: Inhibition at 1 µM (%), ALK, 1 µM, ZLYTE, ATP Km app) was 90%, the inhibition at 1 µM (MAP3K9 (MLK1); [5]) was -11% and the “Inhibition at 1 µM (%)” value (MAP3K9 (MLK1); MAP3K9 (MLK1), 1 µM, ZLYTE, ATP Km app) was -21%. For the same molecule, the inhibition at 1 µM (ADRBK2 (GRK3); [5]) was 7%, the “Inhibition at 1 µM (%)” value (ADRBK2 (GRK3); ADRBK2 (GRK3), 1 µM, ZLYTE, ATP Km app, listed as WEL028, 1 µM) was 8% and the inhibition at 1 µM (ADRBK2 (GRK3); read-out: Inhibition at 1 µM (%), ADRBK2 (GRK3), 1 µM, ZLYTE, ATP Km app) was 5%. For the same molecule, the IC50 (KDR (VEGFR2) [3]) was 631 nM, the inhibition at 1 µM (KDR (VEGFR2) [3]; [5]) was 67% and the inhibition at 10 µM (KDR (VEGFR2) [3]; 1 h, log[inhibitor] (M) -5.00, ZLYTE, ATP Km app) was 101%. The inhibition at 3.31 µM (KDR (VEGFR2) [3]; 1 h, log[inhibitor] (M) -5.48, ZLYTE, ATP Km app) was 99%, the inhibition at 1.12 µM (KDR (VEGFR2) [3]; 1 h, log[inhibitor] (M) -5.95, ZLYTE, ATP Km app) was 70% and the inhibition at 0.372 µM (KDR (VEGFR2) [3]; 1 h, log[inhibitor] (M) -6.43, ZLYTE, ATP Km app) was 37%. The inhibition at 0.123 µM (KDR (VEGFR2) [3]; 1 h, log[inhibitor] (M) -6.91, ZLYTE, ATP Km app) was 26%, the inhibition at 0.04074 µM (KDR (VEGFR2) [3]; 1 h, log[inhibitor] (M) -7.39, ZLYTE, ATP Km app) was 16% and the inhibition at 0.00151 µM (KDR (VEGFR2) [3]; 1 h, log[inhibitor] (M) -8.82, ZLYTE, ATP Km app) was 17%. The inhibition at 0.00049 µM (KDR (VEGFR2) [3]; 1 h, log[inhibitor] (M) -9.31, ZLYTE, ATP Km app) was 17%, the “Inhibition at 1 µM (%)” value (KDR (VEGFR2) [3]; KDR (VEGFR2), 1 µM, ZLYTE, ATP Km app, listed as WEL028, 1 µM) was 65% and the inhibition at 1 µM (KDR (VEGFR2) [3]; read-out: Inhibition at 1 µM (%), KDR (VEGFR2), 1 µM, ZLYTE, ATP Km app) was 69%. The Apparent fold selectivity (KDR (VEGFR2) [4]) was 153 fold, the IC50 (MAP2K4 (MEK4)) was 3.98 nM and the inhibition at 1 µM (MAP2K4 (MEK4); [5]) was 104%. For the same molecule, the Apparent fold selectivity (MAP2K4 (MEK4); IC50 on that kinase divided by IC50 on FES^S700C) was 1 fold, the inhibition at 1 µM (MAP2K4 (MEK4); read-out: Inhibition at 1 µM (%), MAP2K4 (MEK4), 1 µM, LanthaScreen Binding) was 103% and the inhibition at 1 µM (HCK; [5]) was 6%. The “Inhibition at 1 µM (%)” value (HCK; HCK, 1 µM, ZLYTE, ATP Km app, listed as WEL028, 1 µM) was 7%, the inhibition at 1 µM (HCK; read-out: Inhibition at 1 µM (%), HCK, 1 µM, ZLYTE, ATP Km app) was 4% and the inhibition at 1 µM (FER; [5]) was 23%. For the same molecule, the “Inhibition at 1 µM (%)” value (FER; FER, 1 µM, ZLYTE, ATP Km app, listed as WEL028, 1 µM) was 27%, the inhibition at 1 µM (FER; read-out: Inhibition at 1 µM (%), FER, 1 µM, ZLYTE, ATP Km app) was 20% and the inhibition at 1 µM (PRKCH (PKC eta)) was -4%.
